Source: US8883470B2, “Fermentation of carbohydrate” (Anitox Corporation, priority 2009, dated 2014)
Like-named read-outs stand apart in the source and are kept apart here.

Assays:
[1] = tested on: Lactobacillus plantarum (B-4496)
Procedure: (§5) After 24 h, 30 g of corn from each treatment was finely ground and added to glass fermenters with water, enzyme and yeast as described below. Lactobacillus plantarum (B-4496) grown in MRS broth was added to the fermentation bottles (0.1 ml of 6.2×10^10 cfu/mL). Samples were taken after 72 hours fermentation for yeast and Lactobacillus counts.

Lactobacillus [2] = tested on: Lactobacillus
Procedure: (§1) Ethanol production and microbiological profile were analyzed in four fermentation studies using corn treated with 0 (control), 0.45 and 0.90 Kg/MT Formaldehyde. Ground corn and water were mixed and incubated at room temperature in a air-tight 250-ml fermenter jars for 6 hours. This was done in order to increase the naturally occurring Lactobacillus in corn. Previous studies have shown that the level of Lactobacillus is less than 100 cfu/gr in corn. The other reagents were added into the fermenters as described in the following table.
(§2) After the addition of all the reagents, fermenters were sealed with a cap containing a water trap. Fermenters were kept under constant stirring (low speed) at room temperature (21-23° C.) for 72 hours before sampling for yeast, Lactobacillus and alcohol production. Lactobacillus counts were determined on MRS broth containing 1.5% Difco™ Agar. Plates were incubated in an anaerobic chamber at 37-C for 48 hours and colonies enumerated. Yeast counts were determined on PDA plates. Plates were incubated at 27° C. for 48 hours and colonies enumerated. Alcohol was determined by FT-IR (FOSS system).

Yeast [3] = tested on: Yeast
Procedure: as §1, §2

Wild Lactobacillus = tested on: Wild Lactobacillus
Procedure: (§3) Wild Lactobacillus and yeast/mold profile were determined in four studies using corn treated with 0 (control), 0.45 and 0.90 Kg/MT Formaldehyde (HCHO). Ground corn and water were mixed and incubated at room temperature (21-23° C.) in an anaerobic environment for 24 hours. To 5 gr of ground corn 45 ml of Butterfield was added and incubated overnight in a closed container while stirring at room temperature. After incubation, samples were taken to enumerate wild yeast/mold and Lactobacillus.

wild yeast/mold = tested on: wild yeast/mold
Procedure: as §3

[4] = tested on: Lactobacillus plantarum (B-4496); settings: control also 0
Procedure: (§4) Whole corn obtained from a commercial source was treated with formalin (37% formaldehyde solution) at 0, 0.9, 1.8 and 2.7 kg/MT. After 24 h, 30 g of corn from each treatment was finely ground and added to glass fermenters with water, enzyme and yeast as described below. Lactobacillus plantarum (B-4496) grown in MRS broth was added to the fermentation bottles (0.2 ml of 6.2×10^5 cfu/g). Samples were taken after 72 hours fermentation for yeast and Lactobacillus counts. The whole content of the fermentations bottles were centrifuged for 30 minutes at 5000 rpm, filtered through cheesecloth and through a 0.45 u tilter to quantify ethanol production. Treatments are listed on the following table

Yeast [5] = tested on: Yeast; remark: listed apart in the source
Procedure: as §4

Yeast [6] = tested on: Yeast; remark: listed apart in the source
Procedure: as §5

Lactobacillus [7] = settings: 600 mg/L, cited from earlier work
Lactobacillus [8] = settings: during fermentation; cited from earlier work
Yeast [9] = settings: 8 g/L; beet molasses batch fermentation; cited from earlier work
yeast populations = settings: 100 to 400 mg/L; cited from earlier work
Yeast [10] = settings: cited from earlier work

Question: With `C=O` [Formaldehyde, formaldehyde] as the compound, how does the “Lactobacillus (cfu/ml) 72 h” value ([1]; 0.9 kg/MT) read?
Answer: The value was 9.8 × 10^7 cfu/ml.

Question: And the “Lactobacillus (cfu/ml) 72 h” value ([1]; 1.8 kg/MT)?
Answer: Its value is 4.7 × 10^7 cfu/ml.

Question: What about the “Lactobacillus (cfu/ml) 72 h” value ([1]; 2.7 kg/MT) of the same compound?
Answer: Its value is 3.7 × 10^7 cfu/ml.

Question: What about the “decrease in cfu's of Lactobacillus” value ([1]; Lactobacillus added at higher concentrations) of the same compound?
Answer: Its value is 1 log.

Question: And the “Lactobacillus (cfu/gr) after 72-h Fermentation” value (Lactobacillus [2]; 0.45 kg/MT, Study 9)?
Answer: The value was 8.5 × 10^8 cfu/gr.

Question: What about the “Lactobacillus (cfu/gr) after 72-h Fermentation” value (Lactobacillus [2]; 0.45 kg/MT, Study 10) of the same compound?
Answer: The value was 5.2 × 10^8 cfu/gr.

Question: What about the “Lactobacillus (cfu/gr) after 72-h Fermentation” value (Lactobacillus [2]; 0.45 kg/MT, Study 12) of the same compound?
Answer: Its value is 8.9 × 10^8 cfu/gr.

Question: And the “Lactobacillus (cfu/gr) after 72-h Fermentation” value (Lactobacillus [2]; 0.9 kg/MT, Study 9)?
Answer: Its value is 7.4 × 10^8 cfu/gr.

Question: What about the “Lactobacillus (cfu/gr) after 72-h Fermentation” value (Lactobacillus [2]; 0.9 kg/MT, Study 10) of the same compound?
Answer: Its value is 4.3 × 10^8 cfu/gr.

Question: And the “Lactobacillus (cfu/gr) after 72-h Fermentation” value (Lactobacillus [2]; 0.9 kg/MT, Study 12)?
Answer: The value was 9.4 × 10^8 cfu/gr.

Question: What about the “Yeast (cfu/gr) after 72-h Fermentation” value (Yeast [3]; 0.45 kg/MT, Study 9) of the same compound?
Answer: The value was 9.5 × 10^8 cfu/gr.

Question: What about the “Yeast (cfu/gr) after 72-h Fermentation” value (Yeast [3]; 0.45 kg/MT, Study 10) of the same compound?
Answer: Its value is 1.2 × 10^9 cfu/gr.

Question: And the “Yeast (cfu/gr) after 72-h Fermentation” value (Yeast [3]; 0.45 kg/MT, Study 11)?
Answer: Its value is 4.7 × 10^9 cfu/gr.

Question: What about the “Yeast (cfu/gr) after 72-h Fermentation” value (Yeast [3]; 0.45 kg/MT, Study 12) of the same compound?
Answer: The value was 1.8 × 10^9 cfu/gr.

Question: What about the “Yeast (cfu/gr) after 72-h Fermentation” value (Yeast [3]; 0.9 kg/MT, Study 9) of the same compound?
Answer: Its value is 7.4 × 10^8 cfu/gr.

Question: And the “Yeast (cfu/gr) after 72-h Fermentation” value (Yeast [3]; 0.9 kg/MT, Study 10)?
Answer: The value was 1.1 × 10^9 cfu/gr.

Question: What about the “Yeast (cfu/gr) after 72-h Fermentation” value (Yeast [3]; 0.9 kg/MT, Study 11) of the same compound?
Answer: The value was 3.6 × 10^9 cfu/gr.

Question: And the “Yeast (cfu/gr) after 72-h Fermentation” value (Yeast [3]; 0.9 kg/MT, Study 12)?
Answer: Its value is 1.8 × 10^9 cfu/gr.

Question: And the “Lactobacillus (cfu/gr) after 24-h Incubation” value (Wild Lactobacillus; 0.45 kg/MT, Study 1)?
Answer: The value was 4.0 × 10^5 cfu/gr.

Question: And the “Lactobacillus (cfu/gr) after 24-h Incubation” value (Wild Lactobacillus; 0.45 kg/MT, Study 2)?
Answer: Its value is 9.3 × 10^5 cfu/gr.

Question: And the “Lactobacillus (cfu/gr) after 24-h Incubation” value (Wild Lactobacillus; 0.45 kg/MT, Study 3)?
Answer: Its value is 2.9 × 10^4 cfu/gr.

Question: What about the “Lactobacillus (cfu/gr) after 24-h Incubation” value (Wild Lactobacillus; 0.45 kg/MT, Study 4) of the same compound?
Answer: The value was 7.7 × 10^5 cfu/gr.

Question: What about the “Lactobacillus (cfu/gr) after 24-h Incubation” value (Wild Lactobacillus; 0.9 kg/MT, Study 1) of the same compound?
Answer: The value was 6.2 × 10^4 cfu/gr.

Question: And the “Lactobacillus (cfu/gr) after 24-h Incubation” value (Wild Lactobacillus; 0.9 kg/MT, Study 2)?
Answer: Its value is 1.2 × 10^4 cfu/gr.

Question: And the “Lactobacillus (cfu/gr) after 24-h Incubation” value (Wild Lactobacillus; 0.9 kg/MT, Study 3)?
Answer: The value was 9.0 × 10^3 cfu/gr.

Question: What about the “Lactobacillus (cfu/gr) after 24-h Incubation” value (Wild Lactobacillus; 0.9 kg/MT, Study 4) of the same compound?
Answer: The value was 8.1 × 10^4 cfu/gr.

Question: And the “Yeast (cfu/gr) after 24-h Incubation” value (wild yeast/mold; 0.45 kg/MT, Study 1)?
Answer: Its value is 3.0 × 10^5 cfu/gr.

Question: What about the “Yeast (cfu/gr) after 24-h Incubation” value (wild yeast/mold; 0.45 kg/MT, Study 2) of the same compound?
Answer: Its value is 7.0 × 10^5 cfu/gr.

Question: And the “Yeast (cfu/gr) after 24-h Incubation” value (wild yeast/mold; 0.45 kg/MT, Study 3)?
Answer: Its value is 1.6 × 10^5 cfu/gr.

Question: What about the “Yeast (cfu/gr) after 24-h Incubation” value (wild yeast/mold; 0.45 kg/MT, Study 4) of the same compound?
Answer: The value was 3.2 × 10^5 cfu/gr.

Question: What about the “Yeast (cfu/gr) after 24-h Incubation” value (wild yeast/mold; 0.9 kg/MT, Study 1) of the same compound?
Answer: Its value is 7.6 × 10^4 cfu/gr.

Question: What about the “Yeast (cfu/gr) after 24-h Incubation” value (wild yeast/mold; 0.9 kg/MT, Study 2) of the same compound?
Answer: Its value is 5.6 × 10^6 cfu/gr.

Question: What about the “Yeast (cfu/gr) after 24-h Incubation” value (wild yeast/mold; 0.9 kg/MT, Study 3) of the same compound?
Answer: Its value is 2.0 × 10^3 cfu/gr.

Question: What about the “Yeast (cfu/gr) after 24-h Incubation” value (wild yeast/mold; 0.9 kg/MT, Study 4) of the same compound?
Answer: The value was 2.6 × 10^5 cfu/gr.

Question: And the “Lactobacillus (cfu/ml) 72 h” value ([4]; 0.9 kg/MT)?
Answer: The value was 0 cfu/ml.

Question: What about the “Lactobacillus (cfu/ml) 72 h” value ([4]; 1.8 kg/MT) of the same compound?
Answer: The value was 0 cfu/ml.

Question: And the “Lactobacillus (cfu/ml) 72 h” value ([4]; 2.7 kg/MT)?
Answer: Its value is 0 cfu/ml.

Question: What about the “Yeast (cfu/ml) 72 h” value (Yeast [5]; 0.9 kg/MT) of the same compound?
Answer: The value was 9.50 × 10^8 cfu/ml.

Question: What about the “Yeast (cfu/ml) 72 h” value (Yeast [5]; 1.8 kg/MT) of the same compound?
Answer: The value was 6.60 × 10^8 cfu/ml.

Question: And the “Yeast (cfu/ml) 72 h” value (Yeast [5]; 2.7 kg/MT)?
Answer: Its value is 4.20 × 10^8 cfu/ml.

Question: What about the “Yeast (cfu/ml) 72 h” value (Yeast [6]; 0.9 kg/MT) of the same compound?
Answer: Its value is 8.8 × 10^8 cfu/ml.

Question: And the “Yeast (cfu/ml) 72 h” value (Yeast [6]; 1.8 kg/MT)?
Answer: The value was 6.6 × 10^8 cfu/ml.

Question: And the “Yeast (cfu/ml) 72 h” value (Yeast [6]; 2.7 kg/MT)?
Answer: Its value is 8.0 × 10^8 cfu/ml.

Question: With `O=C(O)CCC(=O)O` [Succinic acid] as the compound, how does the “reduction of Lactobacillus concentrations” value (Lactobacillus [7]; by itself) read?
Answer: The value was 78%.

Question: And the “reduction of Lactobacillus concentrations” value (Lactobacillus [7]; in the presence of ethanol)?
Answer: Its value is “up to 96%”.

Question: With `NC(N)=O.OO` [UHP, Urea hydrogen peroxide] as the compound, how does the “bactericidal activity against Lactobacillus” value (Lactobacillus [8]) read?
Answer: Its value is “excellent bactericidal activity”.

Question: With `CC(O)C(=O)O` (centres unmarked) [lactic acid] as the compound, how does the “reduction of alcohol production rate” value (Yeast [9]) read?
Answer: The value was 80%.

Question: And the “reduction of yeast viability” value (Yeast [9])?
Answer: Its value is 95%.

Question: Which “effect on yeast populations” value (yeast populations) does the source give for `O=S(O)O` [sulfite] here?
Answer: Its value is “did not affect yeast populations”.

Question: For virginiamycin, which “inhibition of the yeast” value (Yeast [10]) is on record?
Answer: Its value is “does not significantly inhibit the yeast”.
